Here are results for two compounds from US9109041B2, “Analog compounds of analgesic peptides derived from the venom of crotalus durissus terrificus snakes, their uses, compositions, methods of preparation and purification” (priority 2004, dated 2015).

Experiment [1] deals with carrageenin-induced hyperalgesia. Briefly: rat paw pressure test, carrageenin-induced hyperalgesia. The class given is in vivo. To be noted: for pain threshold, IM (g) ± S.E.M.: saline + antagonist alone i.pl. (CTOP 20, nor-BNI 50, ICI 174.864 10 μg/paw), before carrageenin; for pain threshold, FM (g) ± S.E.M: saline + antagonist alone i.pl. with carrageenin (CTOP 20, nor-BNI 50, ICI 174.864 10 μg/paw), after carrageenin. The method, then: The antinociceptive effect of the synthetic peptide was evaluated in the inflammatory hyperalgesia induced by carrageenin. […] Saline, administered by the same route was used as control.
As determined in the PGE2 model, the participation of opioid receptors in the antinociceptive effect of the peptide SEQ ID NO: 2 in the carrageenin-induced hyperalgesia (Table 10) was investigated. Therefore, the animals were treated with CTOP, a specific μ receptor antagonist (20 μg/paw), nor-BNI, a specific κ receptor antagonist (50 μg/paw) or with ICI 174.864, a specific δ receptor antagonist (10 μg/paw), injected by i.pl. route concomitantly to carrageenin. Peptide was administered in the dose of 1 μg/kg, orally, immediately before carrageenin.

For experiment [2], the system named is hyperalgesia induced by chronic constriction of the sciatic nerve. Briefly: hyperalgesia induced by chronic constriction of the sciatic nerve (rat paw pressure test). Type of experiment: in vivo. To be noted: saline + antagonist alone i.pl. (ICI 10, nor-BNI 50, CTOP 20 μg/paw); for pain threshold, FM 1 h: 1 h after treatment; for pain threshold, MF 3 h: 3 h after treatment; for pain threshold, BM: before surgery; for pain threshold, IM: day 14, before treatment. The method, then:
For the induction of neuropathic pain, surgery was performed in the sciatic nerve, in accordance with the method described by Bennett, G. J and Xie, Y. K. (Pain, 33:87-107, 1988). The animals were anesthetized with halothane. The sciatic nerve was exposed in the middle region of the thigh, moving away the femoral biceps muscle. Close to the trifurcation of the sciatic nerve, 7 mm of distance from the trifurcation, 4 loose ligations were performed (chromed catgut 4-0) around it, distant from each other in approximately 1 mm. The bindings were performed along the nerve, up to 4-5 mm from the initial point. The incision was sutured in layers, using silk suture thread number 4-0.
The test was applied before (BM-basal measurement) and on the 14th day after the surgery, to characterize the development of neuropathic pain.
The results were analyzed by comparing the means of the basal and initial measurements or by comparing the means of the initial and final measurements or, when determined, through the comparison of the means obtained in the different experimental groups.
For this purpose, the animals were treated with CTOP, a specific μ receptor antagonist (20 μg/paw), nor-BNI, a specific κ receptor antagonist (50 μg/paw) or with ICI 174,864, a specific δ receptor antagonist (10 μg/paw). The antagonists were injected, by intraplantar route. The peptide was administered in the dose of 5 μg/kg, orally, immediately before the injection of the opioid antagonists.
The results were analyzed comparing the mean values of the basal and initial measurements, or of the initial and final measurements or, when determined, by comparing the mean values obtained in the different experimental groups (Tables 15 and 16).

Experiment [3] relates to prostaglandin E2-induced hyperalgesia. Briefly: rat paw pressure test, prostaglandin E2-induced hyperalgesia. Conditions: for pain threshold, IM (g) ± S.E.M.: saline p.o. + antagonist alone i.pl. (ICI174,864 10 μg/paw; nor-BNI 50 μg/leg; CTOP 20 μg/leg), before PGE2; for pain threshold, FM (g) ± S.E.M: saline p.o. + antagonist alone i.pl. with PGE2 (ICI174,864 10 μg/paw; nor-BNI 50 μg/leg; CTOP 20 μg/leg), 3 h after PGE2.

As to `Oc1ccc2c3c1O[C@H]1c4[nH]c5c(c4C[C@@]4(O)[C@@H](C2)N(CC2CC2)CC[C@]314)C[C@@]1(O)[C@H]2Cc3ccc(O)c4c3[C@@]1(CCN2CC1CC1)[C@H]5O4` [nor-BNI, nor-Binalthorphimine, reference compound], in experiment [1], the “pain threshold, IM (g) ± S.E.M.” value came to 72 ± 1.12 g and the “pain threshold, FM (g) ± S.E.M” value turned out to be 52 ± 2.79 g. Also, in experiment [2], the “pain threshold, FM 1 h” value was 32 ± 1.22 g; the “pain threshold, MF 3 h” value is 31 ± 1.00 g; the “pain threshold, BM” value is recorded as 72 ± 1.22 g; the “pain threshold, IM” value is on record as 32 ± 1.22 g. Also, in experiment [3], the “pain threshold, IM (g) ± S.E.M.” value stood at 72 ± 1.44 g and the “pain threshold, FM (g) ± S.E.M” value worked out at 56 ± 1.25 g.

Turning to CTOP [reference compound], in experiment [1], the “pain threshold, IM (g) ± S.E.M.” value worked out at 73 ± 1.25 g and the “pain threshold, FM (g) ± S.E.M” value was 49 ± 1.25 g. For the same compound, in experiment [2], the “pain threshold, FM 1 h” value was found to be 30 ± 1.58 g; the “pain threshold, MF 3 h” value is listed as 30 ± 1.58 g; the “pain threshold, BM” value is 72 ± 1.22 g; the “pain threshold, IM” value is given as 28 ± 1.22 g. Moreover, in experiment [3], the “pain threshold, IM (g) ± S.E.M.” value was found to be 74 ± 2.39 g and the “pain threshold, FM (g) ± S.E.M” value was found to be 56 ± 2.39 g.
